Test system: Hydroxyapatite
Assay: Binding affinity to hydroxyapatite at 10 nM by UV-spectroscopy relative to tetracycline

Row | SMILES | RBA [%]
1 | COc1ccc(NC(=O)CCO[C@H]2CC[C@H]3[C@@H]4CCc5cc(OP(=O)(OC(C)C)OC(C)C)ccc5[C@H]4CC[C@]23C)c(O)c1C(N)=O | 200
2 | CCCCC(CC)COP(=O)(OCC(CC)CCCC)Oc1ccc2c(c1)CC[C@@H]1[C@@H]2CC[C@]2(C)[C@@H](OCCC(=O)Nc3ccc(OC)c(C(N)=O)c3O)CC[C@@H]12 (stereo partly drawn) | 180
3 | COc1ccc(NC(=O)CCO[C@H]2CC[C@H]3[C@@H]4CCc5cc(OP(=O)(OCC(C)C)OCC(C)C)ccc5[C@H]4CC[C@]23C)c(O)c1C(N)=O | 180
4 | CCCCCCCCCCCCOP(=O)(OCCCCCCCCCCCC)Oc1ccc2c(c1)CC[C@@H]1[C@@H]2CC[C@]2(C)[C@@H](OCCC(=O)Nc3ccc(OC)c(C(N)=O)c3O)CC[C@@H]12 | 160
5 | C[C@]12CC[C@@H]3c4ccc(O)cc4CC[C@H]3[C@@H]1CC[C@@H]2O | 0
6 | CN(C)[C@@H]1C(O)=C(C(N)=O)C(=O)[C@@]2(O)C(O)=C3C(=O)c4c(O)cccc4[C@@](C)(O)[C@H]3C[C@@H]12 | 100
7 | CCCCOP(=O)(OCCCC)Oc1ccc2c(c1)CC[C@@H]1[C@@H]2CC[C@]2(C)[C@@H](OCCC(=O)Nc3ccc(OC)c(C(N)=O)c3O)CC[C@@H]12 | 100
8 | COc1ccc(NC(=O)CCO[C@H]2CC[C@H]3[C@@H]4CCc5cc(OP(=O)(OCc6ccccc6)OCc6ccccc6)ccc5[C@H]4CC[C@]23C)c(O)c1C(N)=O | 190
